In ChEMBL document CHEMBL1201862, “PubChem BioAssay data set” (2004):
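Exposure lasted 48 hours, with cells grown in 96-well plates and compounds tested at five concentrations. At the GI50, growth is halved.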 Activity calls are given as the source filed them. Cut-off read from the data, not from the text of the source: active = GI50 up to about 1.1 µM and inactive = higher.

Experiments:
Assay in all cases: DTP human tumour cell line panel, 48 h
M19-MEL = tested on: M19-MEL
DMS-273 = tested on: DMS-273
DLD-1 = tested on: DLD-1
HOP-18 = tested on: HOP-18
DMS-114 = tested on: DMS-114
KM-20L2 = tested on: KM-20L2
RXF 631 = tested on: RXF 631
SNB-78 = tested on: SNB-78
XF498 = tested on: XF498

## CC(=O)SCCC1c2[nH]c3ccccc3c2CCN1O (configuration not stated)
M19-MEL
  GI50: > 100 µM (inactive)
DMS-273
  GI50: 86.1 µM (inactive)
DLD-1
  GI50: > 100 µM (inactive)
HOP-18
  GI50: > 100 µM (inactive)
DMS-114
  GI50: 74.5 µM (inactive)
KM-20L2
  GI50: > 100 µM (inactive)

## NC1=NN(c2ccccc2)C(=O)C1C(=O)C(=O)NC1C2CC3CC(C2)CC1C3 (configuration not stated)
RXF 631
  GI50: > 100 µM (inactive)
SNB-78
  GI50: > 100 µM (inactive)
M19-MEL
  GI50: > 100 µM (inactive)
DMS-273
  GI50: > 100 µM (inactive)
DLD-1
  GI50: > 100 µM (inactive)
HOP-18
  GI50: > 100 µM (inactive)
DMS-114
  GI50: > 100 µM (inactive)
KM-20L2
  GI50: > 100 µM (inactive)

## CC(=O)/C(=C\c1ccccc1O)C(=O)Nc1ccccc1C
SNB-78
  GI50: 23.4 µM (inactive)
XF498
  GI50: 13.9 µM (inactive)
M19-MEL
  GI50: 27.7 µM (inactive)
DLD-1
  GI50: 20.1 µM (inactive)
HOP-18
  GI50: 40.2 µM (inactive)
DMS-114
  GI50: 24.3 µM (inactive)

## O=S1(=O)CCCS(=O)(=O)C(c2ccccc2)=C1c1ccccc1
RXF 631
  GI50: 84.7 µM (inactive)
SNB-78
  GI50: > 100 µM (inactive)
M19-MEL
  GI50: 70.5 µM (inactive)
DLD-1
  GI50: 39.7 µM (inactive)
HOP-18
  GI50: 44.6 µM (inactive)
DMS-114
  GI50: 42.7 µM (inactive)
KM-20L2
  GI50: 37.2 µM (inactive)

## CC1=NN(C(=O)Cc2ccccc2)C(=O)/C1=C\c1cccc(O)c1
SNB-78
  GI50: > 100 µM (inactive)
XF498
  GI50: > 100 µM (inactive)
M19-MEL
  GI50: > 100 µM (inactive)
DMS-273
  GI50: > 100 µM (inactive)
DLD-1
  GI50: > 100 µM (inactive)
HOP-18
  GI50: > 100 µM (inactive)
DMS-114
  GI50: > 100 µM (inactive)

## Cn1c(=O)c(C(=O)NC(=O)OCc2ccccc2)cn(CCSCCOC(=O)NCCCCCCNC(=O)OCCSCCn2cc(C(=O)NC(=O)OCc3ccccc3)c(=O)n(C)c2=O)c1=O
RXF 631
  GI50: > 100 µM (inactive)
SNB-78
  GI50: > 100 µM (inactive)
XF498
  GI50: 16.9 µM (inactive)
M19-MEL
  GI50: > 100 µM (inactive)
DMS-273
  GI50: > 100 µM (inactive)
DLD-1
  GI50: > 100 µM (inactive)
DMS-114
  GI50: 78 µM (inactive)
KM-20L2
  GI50: > 100 µM (inactive)

## COc1ccccc1-c1cc(O)c2cc3c(cc2n1)OCO3
XF498
  GI50: 21.9 µM (inactive)
M19-MEL
  GI50: 32.4 µM (inactive)
DMS-273
  GI50: 19.6 µM (inactive)
DLD-1
  GI50: 40.2 µM (inactive)

## O=[PH](O)c1cccnc1
RXF 631
  GI50: > 100 µM (inactive)
SNB-78
  GI50: > 100 µM (inactive)
XF498
  GI50: > 100 µM (inactive)
M19-MEL
  GI50: > 100 µM (inactive)
DMS-273
  GI50: > 100 µM (inactive)
DLD-1
  GI50: > 100 µM (inactive)
DMS-114
  GI50: > 100 µM (inactive)
KM-20L2
  GI50: > 100 µM (inactive)

## C/C(=N\NC(=O)CC(=O)N(C(=O)c1ccc(Cl)cc1)c1ccc(C)cc1)c1ccccc1O
RXF 631
  GI50: > 100 µM (inactive)
SNB-78
  GI50: 57.3 µM (inactive)
XF498
  GI50: > 100 µM (inactive)
M19-MEL
  GI50: > 100 µM (inactive)
DMS-273
  GI50: 31.7 µM (inactive)
DLD-1
  GI50: 74.6 µM (inactive)
DMS-114
  GI50: 97.1 µM (inactive)
KM-20L2
  GI50: 18 µM (inactive)

## COC1CC(Br)(C#N)C1 (configuration not stated)
SNB-78
  GI50: > 100 µM (inactive)
M19-MEL
  GI50: > 100 µM (inactive)
DLD-1
  GI50: > 100 µM (inactive)
HOP-18
  GI50: > 100 µM (inactive)
DMS-114
  GI50: > 100 µM (inactive)
KM-20L2
  GI50: > 100 µM (inactive)

## CC1(Br)C(=O)NC(=O)N([C@H]2C[C@H](O)[C@@H](CO)O2)C1N=[N+]=[N-] (some centres not stated)
RXF 631
  GI50: > 100 µM (inactive)
SNB-78
  GI50: > 100 µM (inactive)
XF498
  GI50: > 100 µM (inactive)
M19-MEL
  GI50: > 100 µM (inactive)
DMS-273
  GI50: > 100 µM (inactive)
DLD-1
  GI50: > 100 µM (inactive)
HOP-18
  GI50: > 100 µM (inactive)
DMS-114
  GI50: > 91.2 µM (inactive)
KM-20L2
  GI50: > 100 µM (inactive)

## CN1CC[C@]2(C)c3c(O)cccc3CC3CCCC1C32C (some centres not stated)
RXF 631
  GI50: > 100 µM (inactive)
SNB-78
  GI50: > 100 µM (inactive)
XF498
  GI50: 59.6 µM (inactive)
M19-MEL
  GI50: > 100 µM (inactive)
DLD-1
  GI50: > 100 µM (inactive)
HOP-18
  GI50: 54.1 µM (inactive)
DMS-114
  GI50: > 100 µM (inactive)
KM-20L2
  GI50: > 100 µM (inactive)

## COc1cc(C(C)O)c[n+](CCc2c[nH]c3ccccc23)c1 (configuration not stated)
RXF 631
  GI50: > 100 µM (inactive)
XF498
  GI50: > 100 µM (inactive)
M19-MEL
  GI50: > 100 µM (inactive)
DMS-273
  GI50: > 100 µM (inactive)
DLD-1
  GI50: > 100 µM (inactive)
DMS-114
  GI50: > 100 µM (inactive)
KM-20L2
  GI50: 56.9 µM (inactive)

## CN(C)Cc1[nH]c2ccccc2c1C(=O)c1ccccc1
XF498
  GI50: 97.9 µM (inactive)
DMS-273
  GI50: > 100 µM (inactive)
DLD-1
  GI50: > 100 µM (inactive)
KM-20L2
  GI50: 64.9 µM (inactive)

## COc1ccc(/C=C2\C(=O)N(C(=O)c3ccc(NC(C)=O)cc3)N=C2C)cc1
SNB-78
  GI50: > 100 µM (inactive)
XF498
  GI50: > 100 µM (inactive)
M19-MEL
  GI50: > 100 µM (inactive)
DMS-273
  GI50: > 100 µM (inactive)
DLD-1
  GI50: > 10 µM (inactive)
HOP-18
  GI50: > 100 µM (inactive)
DMS-114
  GI50: > 100 µM (inactive)

## N#Cc1ccc(C2SCc3nc4ccccc4n32)cc1 (configuration not stated)
SNB-78
  GI50: > 100 µM (inactive)
XF498
  GI50: > 100 µM (inactive)
M19-MEL
  GI50: > 100 µM (inactive)
DMS-273
  GI50: > 100 µM (inactive)
DLD-1
  GI50: > 100 µM (inactive)
HOP-18
  GI50: 48.5 µM (inactive)
KM-20L2
  GI50: 52.7 µM (inactive)

## Cn1nc(-c2ccccc2)c2c(/C=C/c3ccc(Cl)cc3)onc2c1=O
RXF 631
  GI50: > 100 µM (inactive)
XF498
  GI50: 10.5 µM (inactive)
M19-MEL
  GI50: 89.9 µM (inactive)
DMS-273
  GI50: > 100 µM (inactive)
DLD-1
  GI50: 46 µM (inactive)
HOP-18
  GI50: 9.84 µM (inactive)
DMS-114
  GI50: > 100 µM (inactive)
KM-20L2
  GI50: 19.1 µM (inactive)

## CCOCC(=O)N[C@H]1CCc2cc(OC)c(OC)c(OC)c2-c2ccc(SC)c(=O)cc21
RXF 631
  GI50: < 0.01 µM (active)
SNB-78
  GI50: < 0.01 µM (active)
XF498
  GI50: < 0.0224 µM (active)
M19-MEL
  GI50: < 0.01 µM (active)
DMS-273
  GI50: < 0.01 µM (active)
DLD-1
  GI50: < 0.01 µM (active)
HOP-18
  GI50: > 75.3 µM (inactive)
DMS-114
  GI50: < 0.01 µM (active)
KM-20L2
  GI50: < 0.01 µM (active)

## CC1=NN(C(=O)c2ccccc2O)C(=O)/C1=C/c1c(O)ccc2ccccc12
SNB-78
  GI50: 26.6 µM (inactive)
XF498
  GI50: 4.86 µM (inactive)
M19-MEL
  GI50: 0.46 µM (active)
DMS-114
  GI50: 0.219 µM (active)
KM-20L2
  GI50: 4.59 µM (inactive)
